{"source": "paper PMC8587015", "about": "“AGSE: A Novel Grape Seed Extract Enriched for PP2A Activating Flavonoids That Combats Oxidative Stress and Promotes Skin Health” (Molecules, 2021)", "key": {"NHEK-UVB-IL-8": {"test_system": "NHEK-UVB-IL-8", "assay": "UVB-induced IL-8 release from NHEKs (ELISA)", "assay_type": "cell-based, human", "procedure": "(§1) Primary normal human epidermal keratinocytes (NHEKs) and dermal fibroblasts (NHDFs) were purchased from ThermoFisher (Carlsbad, CA, USA) and cultured in EpiLife™ medium (NHEKs) supplemented with Human Keratinocyte Growth Supplement (HKGS) or DMEM (NHDFs) + 10% FBS. All cell types were seeded in plates with growth factor-supplemented medium for 24 h and later media was replaced with growth factor-depleted media for an additional 24 h before treatments and grown at normal conditions (5% CO2; 37 °C).\n(§2) Cells were pre-incubated for 2–6 h with test materials (1% v/v ethanol vehicle) in fresh growth factor-depleted media in triplicates. NHEKs were induced by 5 ng/mL TPA for 24 h or irradiated with 25 mJ/cm^2 (15 s) broadband 305–12 nm UVB (Daavlin; Bryan, OH, USA) without test materials and incubated for an additional 18 h. NHDFs were irradiated with 12.5 J/cm^2 UVA (350–12 nm; 40 min) and later incubated without test materials for an additional 18 h. Media supernatants were harvested after induction and used to measure levels of Interleukin-6 (IL-6), Interleukin-8 (IL-8), collagenase (pro-MMP1) or tumor necrosis factor-α (TNF-α) by sandwich ELISA kits (BD Biosciences; San Jose, CA, USA or R&D Systems; Minneapolis, MN, USA). Cells were subjected to viability tests by MTS reduction assay (Promega; Madison, WI, USA).\n(§3) Statistical significance was determined by ANOVA followed by a Dunnett multiple comparisons test using p-values less than 0.05 as a significant difference. For all biochemical measurements and cytokine levels, samples were assayed in triplicate. Cytokine dose–response curves were generated by fitting data with the Hill, three-parameter equation using the Sigma Plot software, from which the IC50 and maximum inhibition were determined."}, "NHEK-UVB-TNFα": {"test_system": "NHEK-UVB-TNFα", "assay": "UVB-induced TNFα release from NHEKs (ELISA)", "assay_type": "cell-based, human", "procedure": "as §1, §2, §3"}, "NHDFs-UVA-IL-6": {"test_system": "NHDFs-UVA-IL-6", "assay": "UVA-induced IL-6 release from NHDFs (ELISA)", "assay_type": "cell-based, human", "procedure": "as §1, §2, §3"}, "NHEK-TPA-IL-8": {"test_system": "NHEK-TPA-IL-8", "assay": "TPA-induced IL-8 release from NHEKs (ELISA)", "assay_type": "cell-based, human", "details": "5 ng/mL TPA, 24 h", "procedure": "as §1\nCells were pre-incubated for 2–6 h with test materials (1% v/v ethanol vehicle) in fresh growth factor-depleted media in triplicates. NHEKs were induced by 5 ng/mL TPA for 24 h or irradiated with 25 mJ/cm^2 (15 s) broadband 305–12 nm UVB (Daavlin; Bryan, OH, USA) without test materials and incubated for an additional 18 h. NHDFs were irradiated with 12.5 J/cm^2 UVA (350–12 nm; 40 min) and later incubated without test materials for an additional 18 h. […]\nStatistical significance was determined by ANOVA followed by a Dunnett multiple comparisons test using p-values less than 0.05 as a significant difference. […] Cytokine dose–response curves were generated by fitting data with the Hill, three-parameter equation using the Sigma Plot software, from which the IC50 and maximum inhibition were determined."}, "[1]": {"molecular_target": "T1, PME-1 (Protein phosphatase methylesterase 1) (Homo sapiens, UniProt Q9Y570)", "T1 sequence (Q9Y570 1-386)": "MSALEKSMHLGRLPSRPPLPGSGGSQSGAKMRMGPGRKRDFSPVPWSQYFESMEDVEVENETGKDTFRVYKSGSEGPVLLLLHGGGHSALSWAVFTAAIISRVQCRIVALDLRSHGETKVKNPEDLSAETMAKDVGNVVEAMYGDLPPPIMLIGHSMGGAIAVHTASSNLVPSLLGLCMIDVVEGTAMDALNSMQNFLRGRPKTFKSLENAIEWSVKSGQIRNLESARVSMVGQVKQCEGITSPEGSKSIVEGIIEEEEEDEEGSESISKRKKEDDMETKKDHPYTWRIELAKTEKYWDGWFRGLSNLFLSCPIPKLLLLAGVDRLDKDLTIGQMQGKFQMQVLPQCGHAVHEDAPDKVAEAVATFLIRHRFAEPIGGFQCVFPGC", "assay": "Demethylation of PP2A by PME-1, radioactive filter binding assay", "assay_type": "biochemical", "details": "GSE flavonoids / grape seed components; read-out: IC50, PP2A demethylation activity assay", "procedure": "[^3H]-labeled methylated PP2A AC dimer was prepared by incubating PP2A, LCMT1 and [^3H]-SAM (PerkinElmer; Waltham, MA, USA) in 50 mM MOPS-Na (pH 7.2), 5 mM MgCl2, and 1 mM DTT at room temperature for 1 h. Demethylation of PP2A by PME-1 (Protein phosphatase methylesterase 1) was measured using the radioactive filter binding assay format. 20 nM PME-1 was incubated for 15 min with extract or compound, then 20 nM of [^3H]-labeled methylated PP2A AC dimer was added. Reactions were run at room temperature for 30 min then applied to a 96-well filter plate (MilliporeSigma; Burlington, MA, USA.) containing 30% TCA where proteins were precipitated and separated from the excess of [^3H]-SAM by washing with 70% ethanol. [^3H]-incorporation was measured using TopCount NXT scintillation counter (PerkinElmer; Waltham, MA, USA). IC50 values were generated from dose–response curves using a four-parameter logistic curve fit in SigmaPlot (Systat Software, Inc., Palo Alto, CA, USA)."}, "[2]": {"assay": "Cell-free antioxidant ABTS assay by metmyoglobin", "assay_type": "biochemical", "source_text": "(§4) Radical scavenging antioxidant assay was estimated using the colorimetric antioxidant assay kit obtained from Cayman Chemical Company (Ann Arbor, MI, USA). ABTS (2, 2′-Azino-bis-[3-ehthylbenzthiazoline sulphonate]) was used as the chromogen, which changes into a colored monocation radical form (ABTS^•+) by metmyoglobin in the presence of hydrogen peroxide, and monitored by measuring absorption at 750 nm using a plate reader (Envision-PerkinElmer; Waltham, MA, USA). Antioxidant inhibition was calculated based on the discoloration of ABTS by serial concentrations of test compounds added simultaneously with myoglobin and hydrogen peroxide. NHDF cells were cultured in DMEM with 10% fetal bovine serum (FBS) and seeded into black wall 96-well plates and incubated for 24 h before treatment. Cells were pre-treated for 3 h with and without test compounds (0.01–3 µM final concentrations) and labeled with 50 µM of dichloro-dihydro-fluorescein diacetate (DCFH-DA). Total fluorescence (Excitation = 485 nm; Emission = 535 nm) was measured after cells were co-incubated for 20 min with 0.1 mM H2O2 and the test compounds. Cell protection against oxidative stress was calculated using the following formula: Cell protection (%) = [(test compound (%) − hydrogen peroxide-only (%))/([…] − untreated control (%))] × 100."}, "NHDFs intracellular ROS": {"test_system": "NHDFs intracellular ROS", "assay": "Intracellular antioxidant assay (DCFH-DA) in NHDFs after H2O2 induction", "assay_type": "cell-based, human", "details": "3 h pre-incubation", "source_text": "as §4"}, "[3]": {"details": "Homo sapiens, NHEK, light or radiation study, UVB 25 mJ/cm^2"}}}
{"smiles": "CC1=C(/C=C/C(C)=C/C=C/C(C)=C/C(=O)O)C(C)(C)CCC1", "note": "[ATRA, all-trans retinoic acid]", "values": [{"measurement": "IC50", "setting": "NHEK-UVB-IL-8; [3]", "result": "> 1", "unit": "µg/mL"}, {"measurement": "effect on UVB-induced IL-8 release (in words)", "setting": "NHEK-UVB-IL-8; highest non-toxic dose tested", "result": "did not have any effect"}, {"measurement": "IC50", "setting": "NHEK-UVB-TNFα; [3]", "result": "> 1", "unit": "µg/mL"}, {"measurement": "effect on UVB-induced TNFα release (in words)", "setting": "NHEK-UVB-TNFα; highest non-toxic dose tested", "result": "did not have any effect"}, {"measurement": "IC50", "setting": "NHDFs-UVA-IL-6; Homo sapiens, NHDF, light or radiation study, UVA 12.5 J/cm^2", "result": "> 1", "unit": "µg/mL"}, {"measurement": "effect on UVA-induced IL-6 release (in words)", "setting": "NHDFs-UVA-IL-6; highest non-toxic dose tested", "result": "did not have any effect"}]}
{"smiles": "C[C@H]1C[C@H]2[C@@H]3CCC4=CC(=O)C=C[C@]4(C)[C@@]3(F)[C@@H](O)C[C@]2(C)[C@@]1(O)C(=O)CCl", "note": "[Clobetasol]", "values": [{"measurement": "IC50 NHEK-TPA-IL-8", "setting": "NHEK-TPA-IL-8", "result": 0.0005, "unit": "ng/mL"}]}
{"smiles": "COc1cc(/C=C/C(=O)O)ccc1O", "note": "[Ferulic acid]", "values": [{"measurement": "IC50 NHEK-UVB-IL-8", "setting": "NHEK-UVB-IL-8; UVB 25 mJ/cm^2", "result": "<0.01", "unit": "µg/mL"}, {"measurement": "IC50 NHEK-UVB-TNFα", "setting": "NHEK-UVB-TNFα; UVB 25 mJ/cm^2", "result": "<0.01", "unit": "µg/mL"}, {"measurement": "IC50", "setting": "[1]", "result": "> 15", "unit": "µM"}, {"measurement": "IC50 NHDFs-UVA-IL-6", "setting": "NHDFs-UVA-IL-6; UVA 12.5 J/cm^2", "result": 0.01, "unit": "µg/mL"}]}
{"smiles": "O=C1O[C@H]([C@@H](O)CO)C(O)=C1O", "note": "[Vitamin C]", "values": [{"measurement": "IC50, H2O2-induced free radical ROS production", "setting": "[2]", "result": 10.1, "unit": "µg/mL"}, {"measurement": "IC50 NHEK-UVB-IL-8", "setting": "NHEK-UVB-IL-8; UVB 25 mJ/cm^2", "result": ">10", "unit": "µg/mL"}, {"measurement": "IC50 NHEK-UVB-TNFα", "setting": "NHEK-UVB-TNFα; UVB 25 mJ/cm^2", "result": ">10", "unit": "µg/mL"}, {"measurement": "IC50 NHDFs-UVA-IL-6", "setting": "NHDFs-UVA-IL-6; UVA 12.5 J/cm^2", "result": ">10", "unit": "µg/mL"}, {"measurement": "IC50, intracellular oxidative stress", "setting": "NHDFs intracellular ROS", "result": 0.6, "unit": "µg/mL"}]}
{"smiles": "Cc1c(C)c2c(c(C)c1O)CC[C@@](C)(CCC[C@H](C)CCC[C@H](C)CCCC(C)C)O2", "note": "[Vitamin E, α-tocopherol]", "values": [{"measurement": "IC50, H2O2-induced free radical ROS production", "setting": "[2]", "result": 18.6, "unit": "µg/mL"}, {"measurement": "IC50", "setting": "NHDFs intracellular ROS; Homo sapiens, NHDF, read-out: IC50, intracellular oxidative stress", "result": "> 100", "unit": "µg/mL"}]}
